Measured values: patent US20130143886A1, “METHODS FOR PRESERVING AND/OR INCREASING RENAL FUNCTION USING XANTHINE OXIDOREDUCTASE INHIBITORS” (priority 2006, published 2013)

Assays:
remnant kidney (RK) rats = assay: Body weight, food and water intake in remnant kidney rats; assay type: in vivo, Male Wistar rats; details: for BW / BW Gain (from baseline): End of Week 4
Description: Male Wistar rats (295-340 g) were used to produce rats with remnant kidney (RK) as follows. […] Rats were then assigned to one of four treatment groups: Group 1, RK control rats (n=7); Group 2, RK+febuxostat (Fx) rats (n=8); Group 3, RK+oxonic acid (OA) rats (n=6); and Group 4, RK+OA+Fx (n=10). Oxonic acid (OA) (Sigma-Aldrich, St Louis Mo., USA), administered at 750 mg/kg body weight daily by oral gavage, was given starting the day after the ⅚ nephrectomy. Beginning immediately following the surgery, febuxostat was administered in drinking water at 30 mg/L (3-4 mg/kg/day), whereas the respective controls received only drinking water (with 3.5 mg/L of NaCl added to keep an equivalent salt concentration to the Fx-containing water). All groups were treated for four weeks. Body weight (beginning just before surgery) and food and water intakes were measured daily. Systolic blood pressure, measured in conscious rats by a tail cuff sphygmomanometer, and plasma uric acid (UA) levels were measured at just before surgery (namely, at baseline) and at the end of the four weeks. Proteinuria was measured at baseline and at the end of two and four weeks. A renal micropuncture procedure along with systemic blood pressure monitoring under pentobarbital anesthesia was performed at the end of four weeks followed by morphologic evaluation of the renal preglomerular microvasculature. Food and water intake were determined daily. Systolic blood pressure (SBP) was measured by a tail-cuff sphygmomanometer using an automated system (XBP-100; Kent Scientific Co, Torrington, Conn., USA) in conscious animals. All animals were preconditioned for blood pressure measurements one week before each experiment. Plasma uric acid was quantified using a commercial kit (Diagnostic Chemicals Ltd, Charlottetown, PEI, Canada). Proteinuria was determined by turbidimetry by the method of trichloroacetic acid as described in Henry R J et al., “Turbidimetric determination of proteins with sulfosalicylic and tricholoroacetic acids”, Proc Soc Exp Biol Med 92:748-751 (1956), the contents of which are herein incorporated by reference.

[1] = system: hyperuricemic gout patients; assay: FOCUS long-term open-label study: safety
[2] = RK + OA + Fx group (OA-induced hyperuricemia)
[3] = RK + OA + Fx group (OA-induced hyperuricemia), Week 1
[4] = RK + OA + Fx group (OA-induced hyperuricemia), Week 2
[5] = RK + OA + Fx group (OA-induced hyperuricemia), Week 3
[6] = RK + OA + Fx group (OA-induced hyperuricemia), Week 4
[7] = RK rats (RK + Fx or RK + OA group)
[8] = RK rats (RK + Fx or RK + OA group), Week 1
[9] = RK rats (RK + Fx or RK + OA group), Week 2
[10] = RK rats (RK + Fx or RK + OA group), Week 3
[11] = RK rats (RK + Fx or RK + OA group), Week 4
[12] = adverse events, N = 116, PY = 385.6
[13] = serious adverse events, N = 116, PY = 385.6

With `Cc1nc(-c2ccc(OCC(C)C)c(C#N)c2)sc1C(=O)O` [febuxostat, 2-[3-cyano-4-(2-methylpropoxy)phenyl]-4-methylthiazole-5-carboxylic acid] the BW (remnant kidney (RK) rats; [2]) was 316.7 ± 12.3 g, the “BW Gain (from baseline)” value (remnant kidney (RK) rats; [2]) was -3.0 ± 11.5 g and the “Daily Food Intake” value (remnant kidney (RK) rats; [3]) was 8.7 ± 1.7 g. The “Daily Water Intake” value (remnant kidney (RK) rats; [3]) was 30.2 ± 2.8 mL, the “Daily Food Intake” value (remnant kidney (RK) rats; [4]) was 16.0 ± 0.7 g and the “Daily Water Intake” value (remnant kidney (RK) rats; [4]) was 40.6 ± 2.6 mL. For the same compound, the “Daily Food Intake” value (remnant kidney (RK) rats; [5]) was 18.4 ± 0.5 g, the “Daily Water Intake” value (remnant kidney (RK) rats; [5]) was 38.6 ± 1.0 mL and the “Daily Food Intake” value (remnant kidney (RK) rats; [6]) was 18.6 ± 0.5 g. For the same compound, the “Daily Water Intake” value (remnant kidney (RK) rats; [6]) was 40.5 ± 1.6 mL, the BW (remnant kidney (RK) rats; [7]) was 340.6 ± 10.8 g and the “BW Gain (from baseline)” value (remnant kidney (RK) rats; [7]) was 18.4 ± 8.2 g. For the same compound, the “Daily Food Intake” value (remnant kidney (RK) rats; [8]) was 8.6 ± 1.5 g, the “Daily Water Intake” value (remnant kidney (RK) rats; [8]) was 31.5 ± 1.4 mL and the “Daily Food Intake” value (remnant kidney (RK) rats; [9]) was 15.4 ± 0.5 g. For the same compound, the “Daily Water Intake” value (remnant kidney (RK) rats; [9]) was 32.6 ± 1.2 mL, the “Daily Food Intake” value (remnant kidney (RK) rats; [10]) was 20.2 ± 0.5 g and the “Daily Water Intake” value (remnant kidney (RK) rats; [10]) was 37.2 ± 2.5 mL. For the same compound, the “Daily Food Intake” value (remnant kidney (RK) rats; [11]) was 22.4 ± 1.3 g, the “Daily Water Intake” value (remnant kidney (RK) rats; [11]) was 39.4 ± 1.6 mL and the “Water intake in RK rats during febuxostat treatment (in words)” value (remnant kidney (RK) rats; RK rats, normal daily water intake 35-40 mL) was “reduced to near normal levels”. For the same compound, the “Body weight or body weight gain between the four treatment groups (in words)” value (remnant kidney (RK) rats; end of the study) was “no significant differences in body weight or body weight gain”, the “Subjects reporting serious adverse events (SAEs)” value ([1]; 21/116 subjects) was 18% and the “Athralgia, rate” value [1, 12] was 13.0 per 100 PY. The “Diarrhea, rate” value [1, 12] was 7.8 per 100 PY, the “Headaches, rate” value [1, 12] was 20.5 per 100 PY and the “Influenza viral infections, rate” value [1, 12] was 7.3 per 100 PY. For the same compound, the “Limb injuries, rate” value [1, 12] was 5.4 per 100 PY, the “Liver function analyses, rate” value [1, 12] was 6.3 per 100 PY and the “Lower respiratory tract infections, rate” value [1, 12] was 8.8 per 100 PY. The “Musculoskeletal pain, rate” value [1, 12] was 23.6 per 100 PY, the “Paresthesias and dysesthesias, rate” value [1, 12] was 6.2 per 100 PY and the “Upper respiratory tract infections, rate” value [1, 12] was 37.8 per 100 PY. For the same compound, the “Deaths during the study” value ([1]; in vivo) was “No subjects died”, the “Cardiac disorders, rate” value [1, 13] was 1.6 per 100 PY and the “Gastrointestinal disorders, rate” value [1, 13] was 0.8 per 100 PY. The “General disorders and administration site conditions, rate” value [1, 13] was 0.3 per 100 PY, the “Hepatobiliary disorders, rate” value [1, 13] was 0.5 per 100 PY and the “Infections and infestations, rate” value [1, 13] was 1.3 per 100 PY. The “Injury, poisoning and procedural complications, rate” value [1, 13] was 1.0 per 100 PY, the “Musculoskeletal and connective tissue disorders, rate” value [1, 13] was 1.6 per 100 PY and the “Neoplasms - bening, malignant and unspecified, rate” value [1, 13] was 1.0 per 100 PY. The “Nervous system disorders, rate” value [1, 13] was 0.5 per 100 PY, the “Psychiatric disorders, rate” value [1, 13] was 0.3 per 100 PY and the “Renal and urinary disorders, rate” value [1, 13] was 0.3 per 100 PY. The “Subjects reporting at least one AE during the study” value ([1]; subjects of 116 (Ninety-one percent)) was 106/116 and the “Reported rates of adverse events across renal function (in words)” value ([1]; throughout the range of renal function encountered) was “no quantitative difference”.
